Data set [1] is described as follows: Plasma concentrations in patients on oral antitumor therapy (LC-MS). The format is in vivo, human. Particulars: for Median Concentration of All Samples [% of r.c.] / Min–Max Concentration [% of r.c.]: patient plasma, r.c. = respective cmin, all samples; for Interpatient Coefficient of Variation [%]: patient plasma concentrations. The source says:
The liquid chromatography-mass spectrometer system consisted of a Thermo Scientific Dionex UltiMate^TM 3000 with an integrated and temperature controlled autosampler (Thermo Fisher Scientific, Dreieich, Germany). An Acquity UPLC® BEH C18 column (2.1 × 100 mm, 1.7 µm; Waters, Milford, CT, USA) equipped with an Acquity UPLC® BEH C18 VanGuard^TM Pre-Column (2.1 × 5 mm, 1.7 µm; Waters, Milford, CT, USA) was used for chromatographic separation. The Q-Exactive^TM Focus mass spectrometer (MS) was hyphenated with a heated electrospray ionization (HESI) source (both from Thermo Fisher Scientific, Dreieich, Germany).
Chromatographic separation was achieved using a gradient elution with water containing 0.5% (v/v) FA (eluent A) and MeOH with 0.1% (v/v) FA (eluent B). The injection volume was 5 µL. The gradient program is shown in Supplement Table S2. The flow rate was 0.5 mL/min with a total run time of 15 min. The column heater was maintained at 50 °C and the autosampler temperature was 4 °C.
The following MS and HESI settings were maintained for all analyses: Sheath gas, auxiliary gas, and sweep gas flow rates were set to 60, 20, and 0, respectively. The spray voltage was 4000 V. Both capillary and auxiliary gas heater temperatures were set to 400 °C. High-purity nitrogen gas was used for the HESI source gases and for the bath gas of the C-trap. […] The HESI source was configured in positive mode for ionization.
The stock solutions were stored in glass vials at −80 °C. Aliquots of all stock solutions were combined in ACN (volumes of individual stock solution solvents are negligible) to obtain a standard solution of all analytes with an individual concentration of 200% of the respective trough level (cmin). Eight individual working standards were prepared by stepwise dilution of this standard solution with concentrations from 10 to 200% cmin (shown in Supplement Table S3). Furthermore, the four individual IS stock solutions were combined and diluted to 50 ng/mL with ACN. Calibration and validation standards were prepared by spiking 50 µL pooled human plasma with 10 µL of the respective working solution. Next, 250 µL IS solution (50 ng/mL in ACN) were added and vortexed vigorously. […] Then, 100 µL supernatant were transferred to 300 µL HPLC insert glass vials and diluted with 100 µL eluent (90% A/10% B). For blank samples, 50 µL pooled human plasma were combined with 10 µL ACN (instead of working solution) and prepared as described above. The calibration and validation standards were freshly prepared before every run. Patient plasma samples were prepared as calibration and validation standards (no additional processing step necessary), except for adding 10 µL ACN instead of 10 µL working standard. Before sample preparation, the frozen plasma samples were thawed in absence of light at 4 °C.
Blood samples were collected over the entire dosing interval from patients treated with an oral anticancer drug as listed in Supplement Table S4. […] A maximum of two samples at two different time points throughout the entire dosing interval were collected per patient. Treatment duration before collection was at least five half-lives (depending on the specific oral anticancer drug). The samples were collected in K3-EDTA tubes.
A total of 71 blood samples from 39 patients treated with 14 different oral anticancer drugs were collected (see Supplement Table S4 for details). All patients were recruited from independent outpatient clinics associated with the Comprehensive Cancer Center of the University Hospital Erlangen (CCC Erlangen-EMN). Of 71 blood samples, 41 were taken ±4 h of trough level (cmin).

Data set [2] in a line: Reference trough level (cmin) at steady state. Particulars: minimum steady-state plasma concentration, calculated based on cmax; ref supplement [7], [2,5,24], [51]. The format is in vivo, human.

The text below walks through data of PMC8699473, “An Easily Expandable Multi-Drug LC-MS Assay for the Simultaneous Quantification of 57 Oral Antitumor Drugs in Human Plasma” (Cancers, 2021).

Several values for one entry are separate records, joined by “and”; a condition that tells them apart may be missing. Equal entries are not always repeated.

Regarding `COc1cc2c(Nc3ccc(Br)cc3F)ncnc2cc1OCC1CCN(C)CC1` [Vandetanib], in data set [1] (300 mg/day, 24 h, ±4 h of trough level: no), the “Measured plasma concentration” value was 757.7 ng/mL and 621.3 ng/mL. Besides, in data set [1], the “Median Concentration of All Samples [% of r.c.]” value is 86.7 % of r.c and the “Min–Max Concentration [% of r.c.]” value is given as 78.2–95.3 % of r.c.
Turning to `O=C(c1cc(Cc2n[nH]c(=O)c3ccccc23)ccc1F)N1CCN(C(=O)C2CC2)CC1` [Olaparib], the “Measured plasma concentration” value in data set [1] (600 mg/day, 12 h, ±4 h of trough level: no) is 4442.9 ng/mL and 5552.4 ng/mL and 6053.6 ng/mL. For the same compound, in data set [1], the “Interpatient Coefficient of Variation [%]” value is recorded as 51.6% and the “Median Concentration of All Samples [% of r.c.]” value is 287.6 % of r.c.
Turning to `O=C1CN2Cc3c(ccc(Cl)c3Cl)N=C2N1` [Anagrelide], the “cmin” value in data set [2] is reported as 1.5 ng/mL.
For the compound `COc1cc2nccc(Oc3ccc(NC(=O)C4(C(=O)Nc5ccc(F)cc5)CC4)cc3)c2cc1OC` [Cabozantinib], the “Measured plasma concentration” value in data set [1] (20 mg/day, 24 h, ±4 h of trough level: yes) was 289.4 ng/mL and 291.0 ng/mL and 551.4 ng/mL; in data set [1] (40 mg/day, 24 h, ±4 h of trough level: yes) it was 253.5 ng/mL; in data set [1] (60 mg/day, 24 h, ±4 h of trough level: no), 1225.4 ng/mL and 700.9 ng/mL and 627.0 ng/mL; in data set [1] (40/60 mg/day, 24 h, ±4 h of trough level: yes) it was 445.6 ng/mL and 562.2 ng/mL. The “Interpatient Coefficient of Variation [%]” value in data set [1] was 58.5%. In addition, in data set [1], the “Median Concentration of All Samples [% of r.c.]” value was 153.3 % of r.c.
In the case of `C[C@]12CC[C@H](O)CC1=CC[C@@H]1[C@@H]2CC[C@]2(C)C(c3cccnc3)=CC[C@@H]12` [Abiraterone], in data set [1] (14 patient samples), the “CV of plasma concentration at ±4 h of trough level” value is given as 140.8%, the “average concentration of the plasma samples at ±4 h of trough level” value came out at 10.2 ng/mL and the “range of plasma concentration at ±4 h of trough level” value fell in the range of 0.4 to 59.5 ng/mL. Further, in data set [1], the “Interpatient Coefficient of Variation [%]” value is reported as 187.3%, the “Median Concentration of All Samples [% of r.c.]” value is 229.0 % of r.c and the “Min–Max Concentration [% of r.c.]” value is recorded as 4.3–1784.9 % of r.c.
As to `COc1cc2nccc(Oc3ccc(NC(=O)Nc4cc(C)on4)c(Cl)c3)c2cc1OC` [Tivozanib], in data set [1], the “Interpatient Coefficient of Variation [%]” value was determined as 53.8%, the “Median Concentration of All Samples [% of r.c.]” value was 41.4 % of r.c and the “Min–Max Concentration [% of r.c.]” value is on record as 16.4–68.3 % of r.c.
As to `Cc1ccc(Nc2nccc(N(C)c3ccc4c(C)n(C)nc4c3)n2)cc1S(N)(=O)=O` [Pazopanib], in data set [1] (200 mg/day, 24 h, ±4 h of trough level: yes), the “Measured plasma concentration” value is 24300.0 ng/mL and 21520.0 ng/mL. Also, in data set [1], the “Median Concentration of All Samples [% of r.c.]” value is 81.5 % of r.c and the “Min–Max Concentration [% of r.c.]” value was 76.6–86.5 % of r.c.
In the case of `COc1cc2nccc(Oc3ccc(NC(=O)NC4CC4)c(Cl)c3)c2cc1C(N)=O` [Lenvatinib], the “Measured plasma concentration” value in data set [1] (14 mg/day, 24 h, ±4 h of trough level: yes) is recorded as 7.8 ng/mL.
On to `O=c1[nH]c(=O)n([C@H]2C[C@H](O)[C@@H](CO)O2)cc1C(F)(F)F` [Trifluridine], for which, in data set [2], the “cmin” value was 1135 ng/mL.
Consider `CC(C)(C)c1nc(-c2cccc(NS(=O)(=O)c3c(F)cccc3F)c2F)c(-c2ccnc(N)n2)s1` [Dabrafenib], for which, in data set [1], the “Median Concentration of All Samples [% of r.c.]” value was 722.3 % of r.c and the “Min–Max Concentration [% of r.c.]” value is given as 455.8–988.8 % of r.c.
Consider `CNC(=O)c1ccccc1Sc1ccc2c(/C=C/c3ccccn3)n[nH]c2c1` [Axitinib], for which, in data set [1] (6 mg/day, 12 h, ±4 h of trough level: no), the “Measured plasma concentration” value was 0.3 ng/mL. Further, the “Min–Max Concentration [% of r.c.]” value in data set [1] is 6.0 % of r.c.
Take `Cc1ccc(NC(=O)c2ccc(CN3CCN(C)CC3)cc2)cc1Nc1nccc(-c2cccnc2)n1` [Imatinib]: the “Measured plasma concentration” value in data set [1] (400 mg/day, 24 h, ±4 h of trough level: yes) was 1998.2 ng/mL and 1309.6 ng/mL. In data set [1], the “Interpatient Coefficient of Variation [%]” value turned out to be 29.4% and the “Median Concentration of All Samples [% of r.c.]” value is on record as 168.9 % of r.c.
On to `CNC(=O)c1ccc(N2C(=S)N(c3ccc(C#N)c(C(F)(F)F)c3)C(=O)C2(C)C)cc1F` [Enzalutamide], for which the “Measured plasma concentration” value in data set [1] (160 mg/day, 24 h, ±4 h of trough level: yes) is 11296.4 ng/mL and 14087.2 ng/mL and 14395.8 ng/mL and 17580.7 ng/mL and 11074.7 ng/mL. Moreover, in data set [1], the “Median Concentration of All Samples [% of r.c.]” value is 120.1 % of r.c and the “Min–Max Concentration [% of r.c.]” value is reported as 97.1–154.2 % of r.c.
